Like-named read-outs stand apart in the source and are kept apart here. Where only a bound is given, the exact number is not on record here.

The results in this text go back to patent US20230192705A1, “SHP2 INHIBITORS, COMPOSITIONS AND USES THEREOF” (Betta Pharmaceuticals Co., Ltd, priority 2020, published 2023).

A short description of data set [1]: In vitro metabolic stability in rat liver microsome. It is filed as in vitro ADME. The settings on record: rat liver microsomes. As for the experimental part: 1900 mg MgCl2 was dissolved into a final volume of 400 mL ultra-pure water.
17.42 g K2HPO4 and 13.65 g KH2PO4 were dissolved into a final volume of 1000 mL ultra-pure water, respectively. K2HPO4 and KH2PO4 were mixed to prepare 100 mM potassium phosphate (PBS) buffer. The pH value of the final solution was adjusted to pH 7.30±0.10.
Cold ACN (including 10 ng/mL Labetalol and 10 ng/mL Glibenclamid) was stored at 4° C.
Working Solution Preparation:
Verapamil (positive control) and test compound stock solution were diluted into a concentration of 50 μM and 200 μM respectively, using MeOH/ACN/H2O solution (1:1:2, v/v/v).
1) 40 μL MgCl2 and 306 μL PBS were added to 96 plate wells (blank, compound wells, compounds without NADPH wells)
2) 4 μL compound working solution was added to above wells (blank: 4 μL PBS buffer) (Note: the volume of DMSO in final incubation system ≤0.5%)
3) 10 μL microsomes (20 mg/mL) was added in each well. The mixture was warmed up for 10 minutes at 37.0° C.
4) 40 μL 10 mM NADPH working solution was added to start reaction. The total volume was 400 μL.
5) Aliquots of 50 μL samples were taken from the reaction solution at 0, 5, 15, 45 min. The reaction solutions were stopped by the addition of 400 μL stop solution.
6) The sampling plates were shaked for approx. 5 min.
7) Samples were centrifuged at 3200 rcf for 10 min. then transferred 50 μL to a new plate dilute with 200 μL H2O for LC/MS/MS analysis.
Use equation of first order kinetics to calculate t1/2 and CL: […]
Where k represents elimination constant, which is calculated from a log linear plot of % Remaining versus time. t1/2 represents the half-life. Cprotein is the concentration of liver microsomes.

The test system of the next data set is leukemia MV-4-11 cell. As to the kind of experiment: Cell proliferation assay (CellTiter-Glo), MV-4-11. It is filed as cell-based. The note with it: Homo sapiens, MV4-11, MV-4-11, 120 hrs, CTG, read-out: Compound on MV-4-11 cell IC50. (In ATP-based viability assays light output follows the ATP content of the culture.)

Consider `Cn1c(N2CCC3(CC2)Cc2ccccc2[C@H]3N)nc2[nH]nc(C3(c4ccccc4)CC3)c2c1=O` [Example 1], for which the “CLint Rat” value in data set [1] was determined as 34.7 μL/min/mg proteins. The IC50 in the data set on leukemia MV-4-11 cell (class symbols) is not above 20 nM.
As for `N[C@@H]1c2ccccc2CC12CCN(c1nc3[nH]nc(C4(c5ccc(O)cc5)CC4)c3c(=O)[nH]1)CC2` [Example 234, (S)-6-(1-amino-1,3-dihydrospiro[indene-2,4′-piperidin]-1′-yl)-3-(1-(4-hydroxyphenyl)cyclopropyl)-1,5-dihydro-4H-pyrazolo[3,4-d]pyrimidin-4-one], in data set [1], the “CLint Rat” value is 6.6 μL/min/mg proteins.
As to `N[C@@H]1c2ccccc2CC12CCN(c1nc3[nH]nc(C4(c5cccc(F)c5)CC4)c3c(=O)[nH]1)CC2` [Example 6, (S)-6-(1-amino-1,3-dihydrospiro[indene-2,4′-piperidin]-1′-yl)-3-(1-(3-fluorophenyl)cyclopropyl)-1,5-dihydro-4H-pyrazolo[3,4-d]pyrimidin-4-one], the “CLint Rat” value in data set [1] came to 11.2 μL/min/mg proteins. In addition, the IC50 in the data set with leukemia MV-4-11 cell (numeric values) was 6.5 nM.
As to `N[C@@H]1c2ccccc2CC12CCN(c1nc3[nH]nc(C4(c5ccc6c(c5)OC(F)(F)O6)CC4)c3c(=O)[nH]1)CC2` [Example 13, (S)-6-(1-amino-1,3-dihydrospiro[indene-2,4′-piperidin]-1′-yl)-3-(1-(2,2-difluorobenzo[d][1,3]dioxol-5-yl)cyclopropyl)-1,5-dihydro-4H-pyrazolo[3,4-d]pyrimidin-4-one], in data set [1], the “CLint Rat” value is given as 14.3 μL/min/mg proteins. Also, in the data set with leukemia MV-4-11 cell (class symbols), the IC50 was not above 20 nM.
For `N[C@@H]1c2ccccc2CC12CCN(c1nc3[nH]nc(C4(c5csnn5)CC4)c3c(=O)[nH]1)CC2` [Example 240, (S)-3-(1-(1,2,3-thiadiazol-4-yl)cyclopropyl)-6-(1-amino-1,3-dihydrospiro[indene-2,4′-piperidin]-1′-yl)-1,5-dihydro-4H-pyrazolo[3,4-d]pyrimidin-4-one], in data set [1], the “CLint Rat” value is on record as 15.0 μL/min/mg proteins. The IC50 in the data set with leukemia MV-4-11 cell (class symbols) was not above 20 nM.
Consider `N[C@@H]1c2ccccc2CC12CCN(c1nc3[nH]nc(C4(c5ccc(Cl)c(Cl)c5)CC4)c3c(=O)[nH]1)CC2` [Example 21, (S)-6-(1-amino-1,3-dihydrospiro[indene-2,4′-piperidin]-1′-yl)-3-(1-(3,4-dichlorophenyl)cyclopropyl)-1,5-dihydro-4H-pyrazolo[3,4-d]pyrimidin-4-one], for which the “CLint Rat” value in data set [1] amounted to 3.8 μL/min/mg proteins. Besides, the IC50 in the data set with leukemia MV-4-11 cell (class symbols) is not above 20 nM.
In the case of `N[C@@H]1c2ccccc2CC12CCN(c1nc3[nH]nc(C4(c5ccc6c(c5)OCO6)CC4)c3c(=O)[nH]1)CC2` [Example 34, (S)-6-(1-amino-1,3-dihydrospiro[indene-2,4′-piperidin]-1′-yl)-3-(1-(benzo[d][1,3]dioxol-5-yl)cyclopropyl)-1,5-dihydro-4H-pyrazolo[3,4-d]pyrimidin-4-one], in data set [1], the “CLint Rat” value is reported as 19.1 μL/min/mg proteins. In the data set on leukemia MV-4-11 cell (class symbols), the concentration for half-maximal inhibition (IC50) is not above 20 nM.
Turning to `N[C@@H]1c2ccccc2CC12CCN(c1nc3[nH]nc(C4(c5cccs5)CC4)c3c(=O)[nH]1)CC2` [Example 24, (S)-6-(1-amino-1,3-dihydrospiro[indene-2,4′-piperidin]-1′-yl)-3-(1-(thiophen-2-yl)cyclopropyl)-1,5-dihydro-4H-pyrazolo[3,4-d]pyrimidin-4-one], the IC50 in the data set with leukemia MV-4-11 cell (class symbols) is not above 20 nM.
Regarding `N[C@@H]1c2ccccc2CC12CCN(c1nc3[nH]nc(C4(c5ccccc5)CC4(F)F)c3c(=O)[nH]1)CC2` (stereo partly drawn) [Example 9, 6-((S)-1-amino-1,3-dihydrospiro[indene-2,4′-piperidin]-1′-yl)-3-(2,2-difluoro-1-phenylcyclopropyl)-1,5-dihydro-4H-pyrazolo[3,4-d]pyrimidin-4-one], the “CLint Rat” value in data set [1] turned out to be 10.5 μL/min/mg proteins. Further, in the data set on leukemia MV-4-11 cell (class symbols), the IC50 is not above 20 nM.
With `N[C@@H]1c2ccccc2CC12CCN(c1nc3[nH]nc(C4(c5ccccc5)COC4)c3c(=O)[nH]1)CC2` [Example 96, (S)-6-(1-amino-1,3-dihydrospiro[indene-2,4′-piperidin]-1′-yl)-3-(3-phenyloxetan-3-yl)-1,5-dihydro-4H-pyrazolo[3,4-d]pyrimidin-4-one], the IC50 in the data set with leukemia MV-4-11 cell (class symbols) fell in the range of 20 to 60 nM.
For `N[C@@H]1c2ccccc2CC12CCN(c1nc3[nH]nc(C4(c5ccc(F)cc5)CC4)c3c(=O)[nH]1)CC2` [Example 11, (S)-6-(1-amino-1,3-dihydrospiro[indene-2,4′-piperidin]-1′-yl)-3-(1-(4-fluorophenyl)cyclopropyl)-1,5-dihydro-4H-pyrazolo[3,4-d]pyrimidin-4-one], the “CLint Rat” value in data set [1] turned out to be 6.6 μL/min/mg proteins. For the same molecule, in the data set with leukemia MV-4-11 cell (numeric values), the IC50 worked out at 1.2 nM.
As for `N#Cc1ccc(C2(c3n[nH]c4nc(N5CCC6(CC5)Cc5ccccc5[C@H]6N)[nH]c(=O)c34)CC2)cc1` [Example 237, (S)-4-(1-(6-(1-amino-1,3-dihydrospiro[indene-2,4′-piperidin]-1′-yl)-4-oxo-4,5-dihydro-1H-pyrazolo[3,4-d]pyrimidin-3-yl)cyclopropyl)benzonitrile], the 50% inhibitory concentration (IC50) in the data set on leukemia MV-4-11 cell (class symbols) was not above 20 nM.
Take `Nc1ccc(C2(c3n[nH]c4nc(N5CCC6(CC5)Cc5ccccc5[C@H]6N)[nH]c(=O)c34)CC2)cc1` [Example 230, (S)-6-(1-amino-1,3-dihydrospiro[indene-2,4′-piperidin]-1′-yl)-3-(1-(4-aminophenyl)cyclopropyl)-1,5-dihydro-4H-pyrazolo[3,4-d]pyrimidin-4-one]: the “CLint Rat” value in data set [1] is 3.2 μL/min/mg proteins.
In the case of `N[C@@H]1c2ccccc2CC12CCN(c1nc3[nH]nc(C4(c5ccccc5)CC4)c3c(=O)[nH]1)CC2` [Example 33], the “CLint Rat” value in data set [1] is 17.4 μL/min/mg proteins. Besides, the IC50 with leukemia MV-4-11 cell (class symbols) was not above 20 nM.
Take `N[C@@H]1c2ccccc2CC12CCN(c1nc3[nH]nc(C4(c5cccc(C(F)(F)F)c5)CC4)c3c(=O)[nH]1)CC2` [Example 8, (S)-6-(1-amino-1,3-dihydrospiro[indene-2,4′-piperidin]-1′-yl)-3-(1-(3-(trifluoromethyl)plienyl)cyclo-propyl)-1,5-dihydro-4H-pyrazolo[3,4-d]pyrimidin-4-one]: the “CLint Rat” value in data set [1] was 11.6 μL/min/mg proteins. For the same molecule, the IC50 in the data set on leukemia MV-4-11 cell (numeric values) amounted to 6.1 nM.
For `N[C@@H]1c2ccccc2CC12CCN(c1nc3[nH]nc(C4(c5ccc(C(F)(F)F)cc5)CC4)c3c(=O)[nH]1)CC2` [Example 228, (S)-6-(1-amino-1,3-dihydrospiro[indene-2,4′-piperidin]-1′-yl)-3-(1-(4-(trifluoromethyl)phenyl)cyclo-propyl)-1,5-dihydro-4H-pyrazolo[3,4-d]pyrimidin-4-one], in data set [1], the “CLint Rat” value is 12.4 μL/min/mg proteins. Besides, the IC50 in the data set with leukemia MV-4-11 cell (class symbols) was 20 to 60 nM.

As usually defined, the IC50 is the midpoint of a concentration-inhibition curve.
